Measurements published in US12139520B2 (priority 2020, dated 2024).
Bridge positions count the residues as written; N and C are the ends. Square brackets hold non-standard residues; d marks the D form. Peptide text beside a SMILES is read from it. Hyp = O=C(O)[C@@H]1C[C@@H](O)CN1; Cit = NC(=O)NCCC[C@H](N)C(=O)O

Key:
[1] = biological target: T1, hAMY3 receptor (Homo sapiens, UniProt O60896+P30988); experiment: cAMP assay for in vitro receptor activation, hAMY3-R; type: cell-based; conditions: cAMP assay, hAMY3 receptor; read-out: hAMY3R EC50
T1 sequence (P30988 25-474): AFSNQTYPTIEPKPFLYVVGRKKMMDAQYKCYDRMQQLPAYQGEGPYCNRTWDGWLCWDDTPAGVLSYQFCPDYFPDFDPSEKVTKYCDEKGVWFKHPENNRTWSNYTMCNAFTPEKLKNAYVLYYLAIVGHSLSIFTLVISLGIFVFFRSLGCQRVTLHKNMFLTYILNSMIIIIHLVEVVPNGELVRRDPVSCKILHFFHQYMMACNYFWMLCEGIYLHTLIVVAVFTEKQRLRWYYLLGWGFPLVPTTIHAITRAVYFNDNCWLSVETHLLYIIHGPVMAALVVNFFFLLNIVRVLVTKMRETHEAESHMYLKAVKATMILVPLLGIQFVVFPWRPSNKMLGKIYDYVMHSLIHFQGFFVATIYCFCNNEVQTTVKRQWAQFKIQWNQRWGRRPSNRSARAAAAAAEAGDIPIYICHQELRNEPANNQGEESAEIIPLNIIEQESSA
T1 sequence (O60896 24-148 partner): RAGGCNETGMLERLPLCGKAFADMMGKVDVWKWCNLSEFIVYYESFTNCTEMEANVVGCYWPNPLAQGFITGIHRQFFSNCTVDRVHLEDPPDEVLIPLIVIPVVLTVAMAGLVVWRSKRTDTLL
Method in brief: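 Read-out is TR-FRET cAMP signal, recorded one hour after reagent addition, following 30 min room-temperature stimulation of stable hAMY3 cells with graded compound doses in casein/IBMX (0.5 mM) buffer.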

[2] = Physical stability of peptide analogues (Thioflavin T fibrillation); type: physicochemical; conditions: maximum ThT signal normalized between hAMY maximum and buffer background; 40° C., shaking, four days; pH 7 per table title
Method in brief: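 ThT fluorescence (450 nm excitation, 480 nm emission; 4 μM dye) was read every 10 min over four days at 40° C under 700 rpm shaking stress, after 1 h in pH 4 acetate or pH 7 phosphate (50 mM). Peak smoothed signal expressed as percent, scaled between buffer background and hAMY maximum.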

SMILES	EC50 [1]	Max ThT signal (%) [2]
CC[C@H](C)[C@H](NC(=O)[C@H](CCC(N)=O)NC(=O)[C@H](Cc1c[nH]cn1)NC(=O)[C@H](C)NC(=O)[C@H](CC(C)C)NC(=O)[C@H](CCCNC(N)=O)NC(=O)[C@H](CCC(N)=O)NC(=O)[C@@H](NC(=O)[C@@H](NC(=O)[C@@H]1CSSC[C@H](NC(=O)CN)C(=O)N[C@@H](CCCNC(=N)N)C(=O)N[C@@H](Cc2ccccc2)C(=O)NCC(=O)N[C@@H]([C@@H](C)O)C(=O)N1)[C@@H](C)O)C(C)C)C(=O)N[C@@H](Cc1ccc(O)cc1)C(=O)N[C@@H](CCC(N)=O)C(=O)N[C@@H](Cc1ccccc1)C(=O)N[C@H](C(=O)N[C@@H](CC(=O)O)C(=O)N[C@@H](CCCCN)C(=O)N[C@@H](CC(=O)O)C(=O)N[C@@H](CCCCN)C(=O)N[C@@H](CC(=O)O)C(=O)N[C@@H](CC(N)=O)C(=O)N[C@H](C(=O)N[C@@H](C)C(=O)N1CCC[C@H]1C(=O)N[C@@H](CCCNC(=N)N)C(=O)N[C@H](C(=O)N[C@@H](CC(N)=O)C(=O)N[C@H](C(=O)N[C@@H](CO)C(=O)N1CCC[C@H]1C(=O)N[C@@H](CCC(N)=O)C(=O)NCC(=O)N[C@@H](Cc1ccc(O)cc1)C(N)=O)C(C)C)[C@@H](C)O)C(C)C)[C@@H](C)O [compound 278] (H-GCRFGTCTVQ[Cit]LAHQIYQFTDKDKDNVAPRTNVSPQGY-NH2; disulfide 2-7; N-terminus assumed)	0.011 nM	13.350%
CC[C@H](C)[C@H](NC(=O)[C@H](CCC(N)=O)NC(=O)[C@H](Cc1c[nH]cn1)NC(=O)[C@H](C)NC(=O)[C@H](CC(C)C)NC(=O)[C@H](CCCNC(=N)N)NC(=O)[C@H](CCC(N)=O)NC(=O)[C@@H](NC(=O)[C@@H](NC(=O)[C@@H]1CSSC[C@H](NC(=O)CN)C(=O)N[C@@H](CCCNC(=N)N)C(=O)N[C@@H]([C@@H](C)O)C(=O)NCC(=O)N[C@@H]([C@@H](C)O)C(=O)N1)[C@@H](C)O)C(C)C)C(=O)N[C@@H](Cc1ccc(O)cc1)C(=O)N[C@@H](CCC(N)=O)C(=O)N[C@@H](Cc1ccccc1)C(=O)N[C@H](C(=O)N[C@@H](CC(=O)O)C(=O)N[C@@H](CCCCN)C(=O)N[C@@H](CC(=O)O)C(=O)N[C@@H](CCCCN)C(=O)N[C@@H](CC(=O)O)C(=O)N[C@@H](CC(N)=O)C(=O)N[C@H](C(=O)N[C@@H](C)C(=O)N1CCC[C@H]1C(=O)N[C@@H](CCCNC(=N)N)C(=O)N[C@H](C(=O)N[C@@H](CC(N)=O)C(=O)N[C@H](C(=O)N[C@@H](CO)C(=O)N1CCC[C@H]1C(=O)N[C@@H](CC(N)=O)C(=O)NCC(=O)N1C[C@H](O)C[C@H]1C(N)=O)C(C)C)[C@@H](C)O)C(C)C)[C@@H](C)O [compound 163] (H-GCRTGTCTVQRLAHQIYQFTDKDKDNVAPRTNVSPNG[Hyp]-NH2; disulfide 2-7; N-terminus assumed)	0.053 nM	2.000%
CC[C@H](C)[C@H](NC(=O)[C@H](CCC(N)=O)NC(=O)[C@H](Cc1c[nH]cn1)NC(=O)[C@H](C)NC(=O)[C@H](CC(C)C)NC(=O)[C@H](CCCNC(=N)N)NC(=O)[C@H](CCC(N)=O)NC(=O)[C@@H](NC(=O)[C@@H](NC(=O)[C@@H]1CSSC[C@H](NC(=O)CN)C(=O)N[C@@H](CCCNC(=N)N)C(=O)N[C@@H]([C@@H](C)O)C(=O)NCC(=O)N[C@@H]([C@@H](C)O)C(=O)N1)[C@@H](C)O)C(C)C)C(=O)N[C@@H](Cc1ccc(O)cc1)C(=O)N[C@@H](CCC(N)=O)C(=O)N[C@@H](Cc1ccccc1)C(=O)N[C@H](C(=O)N[C@@H](CC(=O)O)C(=O)N[C@@H](CCCCN)C(=O)N[C@@H](CC(=O)O)C(=O)N[C@@H](CCCCN)C(=O)N[C@@H](CC(=O)O)C(=O)N[C@@H](CC(N)=O)C(=O)N[C@H](C(=O)N[C@@H](C)C(=O)N1CCC[C@H]1C(=O)N[C@@H](CCCNC(=N)N)C(=O)N[C@@H](CO)C(=O)N[C@@H](CC(N)=O)C(=O)N[C@H](C(=O)N[C@@H](CO)C(=O)N1CCC[C@H]1C(=O)N[C@@H](CC(N)=O)C(=O)NCC(=O)N1C[C@H](O)C[C@H]1C(N)=O)C(C)C)C(C)C)[C@@H](C)O [compound 166] (H-GCRTGTCTVQRLAHQIYQFTDKDKDNVAPRSNVSPNG[Hyp]-NH2; disulfide 2-7; N-terminus assumed)	0.056 nM	2.000%

Next, values leading:

EC50 [1]	Max ThT signal (%) [2]	SMILES
0.013 nM	13.450%	CC[C@H](C)[C@H](NC(=O)[C@H](CCC(N)=O)NC(=O)[C@H](Cc1c[nH]cn1)NC(=O)[C@H](C)NC(=O)[C@H](CC(C)C)NC(=O)[C@H](CCCNC(N)=O)NC(=O)[C@H](CCC(N)=O)NC(=O)[C@@H](NC(=O)[C@@H](NC(=O)[C@@H]1CSSC[C@H](NC(=O)CN)C(=O)N[C@@H](CCCNC(=N)N)C(=O)N[C@@H](Cc2ccccc2)C(=O)NCC(=O)N[C@@H]([C@@H](C)O)C(=O)N1)[C@@H](C)O)C(C)C)C(=O)N[C@@H](Cc1ccc(O)cc1)C(=O)N[C@@H](CCC(N)=O)C(=O)N[C@@H](Cc1ccccc1)C(=O)N[C@H](C(=O)N[C@@H](CC(=O)O)C(=O)N[C@@H](CCCCN)C(=O)N[C@@H](CC(=O)O)C(=O)N[C@@H](CCCCN)C(=O)N[C@@H](CC(=O)O)C(=O)N[C@@H](CC(N)=O)C(=O)N[C@H](C(=O)N[C@@H](C)C(=O)N1CCC[C@H]1C(=O)N[C@@H](CCCNC(=N)N)C(=O)N[C@H](C(=O)N[C@@H](CCCCN)C(=O)N[C@H](C(=O)NCC(=O)N1CCC[C@H]1C(=O)N[C@@H](CCC(N)=O)C(=O)NCC(=O)N1C[C@H](O)C[C@H]1C(N)=O)C(C)C)[C@@H](C)O)C(C)C)[C@@H](C)O [compound 259] (H-GCRFGTCTVQ[Cit]LAHQIYQFTDKDKDNVAPRTKVGPQG[Hyp]-NH2; disulfide 2-7)
0.027 nM	30.300%	CC[C@H](C)[C@H](NC(=O)[C@H](CCC(N)=O)NC(=O)[C@H](Cc1c[nH]cn1)NC(=O)[C@H](C)NC(=O)[C@H](CC(C)C)NC(=O)[C@H](Cc1c[nH]c2ccccc12)NC(=O)[C@H](CCC(N)=O)NC(=O)[C@@H](NC(=O)[C@@H](NC(=O)[C@@H]1CSSC[C@H](NC(=O)CN)C(=O)N[C@@H](CCCNC(=N)N)C(=O)N[C@@H](Cc2ccccc2)C(=O)NCC(=O)N[C@@H]([C@@H](C)O)C(=O)N1)[C@@H](C)O)C(C)C)C(=O)N[C@@H](Cc1ccc(O)cc1)C(=O)N[C@@H](CCC(N)=O)C(=O)N[C@@H](Cc1ccccc1)C(=O)N[C@H](C(=O)N[C@@H](CC(=O)O)C(=O)N[C@@H](CCCCN)C(=O)N[C@@H](CC(=O)O)C(=O)N[C@@H](CCCCN)C(=O)N[C@@H](CC(=O)O)C(=O)N[C@@H](CC(N)=O)C(=O)N[C@H](C(=O)N[C@@H](C)C(=O)N1CCC[C@H]1C(=O)N[C@@H](CCCNC(=N)N)C(=O)N[C@@H](CO)C(=O)N[C@@H](CCCCN)C(=O)N[C@H](C(=O)NCC(=O)N1CCC[C@H]1C(=O)N[C@@H](CCC(N)=O)C(=O)NCC(=O)N1C[C@H](O)C[C@H]1C(N)=O)C(C)C)C(C)C)[C@@H](C)O [compound 353] (H-GCRFGTCTVQWLAHQIYQFTDKDKDNVAPRSKVGPQG[Hyp]-NH2; disulfide 2-7; N-terminus assumed)
0.051 nM	14.300%	CC[C@H](C)[C@H](NC(=O)[C@H](CCCCN)NC(=O)[C@@H](NC(=O)[C@H](CCCNC(=N)N)NC(=O)[C@@H]1CCCN1C(=O)[C@H](C)NC(=O)[C@@H](NC(=O)[C@H](CC(N)=O)NC(=O)[C@H](CC(=O)O)NC(=O)[C@H](CCCCN)NC(=O)[C@H](CC(=O)O)NC(=O)[C@H](CCCCN)NC(=O)[C@H](CC(=O)O)NC(=O)[C@@H](NC(=O)[C@H](Cc1ccccc1)NC(=O)[C@H](CCC(N)=O)NC(=O)[C@H](Cc1ccc(O)cc1)NC(=O)[C@@H](NC(=O)[C@H](CCC(N)=O)NC(=O)[C@H](Cc1c[nH]cn1)NC(=O)[C@H](C)NC(=O)[C@H](CC(C)C)NC(=O)[C@H](CCCNC(=N)N)NC(=O)[C@H](CCC(N)=O)NC(=O)[C@@H](NC(=O)[C@@H](NC(=O)[C@@H]1CSSC[C@H](NC(=O)CN)C(=O)N[C@@H](CCCNC(=N)N)C(=O)N[C@@H]([C@@H](C)O)C(=O)NCC(=O)N[C@@H]([C@@H](C)O)C(=O)N1)[C@@H](C)O)C(C)C)[C@@H](C)CC)[C@@H](C)O)C(C)C)[C@@H](C)O)C(=O)NCC(=O)N1CCC[C@H]1C(=O)N[C@@H](CCC(N)=O)C(=O)NCC(=O)N1C[C@H](O)C[C@H]1C(N)=O [compound 161] (H-GCRTGTCTVQRLAHQIYQFTDKDKDNVAPRTKIGPQG[Hyp]-NH2; disulfide 2-7; N-terminus assumed)
